Assay results: patent US20230390226A1 (PaxMedica, Inc., priority 2021, published 2023)

Key:
Format in all cases: in vivo, mouse
[1] = tested on: B6.129P2-Fmr1tm1Cgr/J transgenic (TG) mice; assay: Locomotor activity test (SmartCage)
Procedure: (§1) • 1. N=6 mice per group. • 2. All behavioral testing included a group of untreated wild type controls. • 3. Dosing for the various groups were as follows: • a. […] Group 2: IP saline, […], administered weekly to animals beginning at 9 weeks of age and continuing for four weeks (i.e. given at Age Weeks 9, 10, 11 and 12). • c. […] Behavioral tests for all groups (Groups 1-5) began the following day after the last day of IN dosing (Weeks 13-14 of age). • 5. Blood samples (for PK testing) were collected from all mice at the end of Week 12 of age, just prior to starting the behavioral tests in Week 13 of age. • 6. Brain tissue (for biochemistry testing) was harvested from all mice upon sacrifice at the conclusion of all behavioral testing at the end of Week 13-14 of age.
Male B6.129P2-Fmr1tm1Cgr/J TG (TG) mice were purchased from Jackson Laboratories, Bar Harbor, Maine. These mice were of approximately 8(+1) weeks of age. […] Body weights of all mice were recorded for health monitoring purposes.
Dosing was carried out over the course of 28 days as instructed by the study Sponsor. […] Day 1 to Day 2: Locomotor Activity recording is assessed using the SmartCage™ • 2. […]
Each mouse was placed in a clean plastic, transparent home cage within the SmartCage™. […] Active Time, Travel Distance, and Rearing Activity were assessed for each mouse. Data analyzed based on treatment group.

[2] = tested on: B6.129P2-Fmr1tm1Cgr/J transgenic (TG) mice; assay: Light/dark preference test (LDT), anxiety-like behavior
Procedure: • 1. N=6 mice per group. • 2. All behavioral testing included a group of untreated wild type controls. • 3. Dosing for the various groups were as follows: • a. […] Group 2: IP saline, […], administered weekly to animals beginning at 9 weeks of age and continuing for four weeks (i.e. given at Age Weeks 9, 10, 11 and 12). • c. […] Behavioral tests for all groups (Groups 1-5) began the following day after the last day of IN dosing (Weeks 13-14 of age). • 5. Blood samples (PK testing) were collected from all mice at the end of 12 Weeks of age, just prior to starting the behavioral tests in Week 13. • 6. Brain tissue (for biochemistry testing) was harvested from all mice upon sacrifice at the conclusion of all behavioral testing at the end of 13-14 Weeks of age.
(§2) Male B6.129P2-Fmr1tm1Cgr/J TG mice were purchased from Jackson Laboratories, Bar Harbor, Maine. These mice were of approximately 8(+1) weeks of age. Mice were maintained in group cages (6 mice per cage based on treatment group) in a controlled environment (temperature: 21.5±4.5° C./relative humidity: 35-55%) under a standard 12-hour light/12-hour dark lighting cycle (lights on at 06:00). Mice accommodated to the research facility for the remainder of the week. Dosing began on the following Monday. Body weights of all mice were recorded for health monitoring purposes.
Dosing was carried out over the course of 28 days as instructed by the study sponsor. • 1. Prior to the beginning of the light/dark test, a dark box (red transparent enclosure with an opening for the mouse to enter) is placed in the SmartCage™ • 2. An individual mouse is placed in the open/non-dark box side (“Light Zone”), with its head facing away from the dark box. • 3. The mouse is then allowed to freely explore the SmartCage™ and enter the dark box “Dark Zone” at its own discretion over a 10-minute span. • 4. Anxiety-like behavior is assessed based on the SmartCage™ monitoring of time spent in the Light Zone, the number of Light Zone entries, and % Time Spent in the Light Zone. • 5. […]

[3] = tested on: B6.129P2-Fmr1tm1Cgr/J transgenic (TG) mice; assay: Step through passive avoidance test, learning and memory
Procedure: as §1, with “type (WT)” for “type”
as §2, with “TG (TG)” for “TG”, “8 (±1)” for “8(+1)”, “12 hour light/12 hour” for “12-hour light/12-hour”
Dosing was carried out over the course of 28 days as instructed by the study Sponsor. The fifth and final behavioral test, the Step Through (ST) Passive Avoidance Test, was performed over two days (days 38 and 39) with the first day as a Training Day and the second day as a Test Day. Passive avoidance is fear-motivated tests classically used to assess short-term or long-term memory on rodents. […] The mouse is then allowed to freely explore the SmartCage™ and enter the dark box “Dark Zone” at its own discretion; dark box entry latency is automatically recorded. • 4. […] The mouse may freely explore the SmartCage™ for 5 minutes, and avoidance of the Dark Box due to contextual-fear association is assessed. • 8. […]

In the case of `Cc1ccc(C(=O)Nc2ccc(S(=O)(=O)O)c3cc(S(=O)(=O)O)cc(S(=O)(=O)O)c23)cc1NC(=O)c1cccc(NC(=O)Nc2cccc(C(=O)Nc3cc(C(=O)Nc4ccc(S(=O)(=O)O)c5cc(S(=O)(=O)O)cc(S(=O)(=O)O)c45)ccc3C)c2)c1` [suramin, 1,3,5-Naphthalenetrisulfonic acid, 8,8′-[carbonylbis[imino-3,1-phenylenecarbonylimino(4-methyl-3,1-phenylene)carbonylimino]]bis-], the active time ([1]; IN daily, weekly and every 2 days, ~24 h recording) is reported as “greater activity compared to the WT control group”, the rearing count ([1]; IN every 2 days) is reported as “comparable to the WT control group” and the “percentage of time spent in the light zone” value ([2]; IN weekly for 4 weeks) is reported as “higher percentage of time spent in the Light Zone”. The “total time spent in the light zone” value ([2]; IN weekly for 4 weeks, 10-minute test) was roughly 6.5 min, the “dark zone entry latency” value ([2]; all IN groups (daily, every other day, weekly)) was 60 to 65 s and the “dark zone entry latency” value ([3]; Test Day, IP 20 mg/kg weekly) was “shortest latency”. For the same compound, the “percentage of time spent in the light zone” value ([3]; test day, IN groups) was “greater than 70%” and the “total light zone time” value ([3]; test day, IP 20 mg/kg weekly) was “lower total time”.
